Measurements reported in publication PMC8855368 (Journal of medicinal chemistry, 2019).

Tests used:
[1] = molecular target: T1, GSTO1–1 (Homo sapiens, UniProt P78417); conditions: GSTO1–1 binding assay
T1 sequence (P78417 1-241): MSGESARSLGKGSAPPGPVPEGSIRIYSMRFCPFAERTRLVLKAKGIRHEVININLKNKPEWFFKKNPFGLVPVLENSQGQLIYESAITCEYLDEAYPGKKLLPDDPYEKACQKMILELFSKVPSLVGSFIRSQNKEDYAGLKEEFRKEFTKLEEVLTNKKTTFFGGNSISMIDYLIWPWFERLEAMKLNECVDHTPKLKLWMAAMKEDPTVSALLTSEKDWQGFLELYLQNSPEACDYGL

[2] = system: HCT116; test: MTT cell viability assay, HCT116; format: cell-based; conditions: read-out: IC50-MTT HCT116; HCT116, 72 h; values of two independent experiments
[3] = Stability in 20% acetonitrile/PBS buffer by LC–MS; format: physicochemical; conditions: room temperature overnight

| SMILES | GSTO1–1 binding activity (in words) [1] | also measured |
| --- | --- | --- |
| C=CC(=O)N1CCC(c2ccccc2)CC1 [Compound 7, 1-(4-Phenylpiperidin-1-yl)prop-2-en-1-one] | did not possess significant GSTO1–1 binding activity | – |
| C=CC(=O)N1CCC(Cc2ccccc2)CC1 [Compound 8, 1-(4-Benzylpiperidin-1-yl)prop-2-en-1-one] | did not possess significant GSTO1–1 binding activity | – |
| C=CC(=O)Nc1nc(-c2ccc(O)cc2)cs1 [Compound 25, N-(4-(4-Hydroxylphenyl)thiazol-2-yl)acrylamide] | – | IC50 [2]: 7.1 µM |
| C=CC(=O)N(Cc1cc(C)no1)c1nc(-c2ccccc2O)cs1 [Compound 49, N-((3-Methylisoxazol-5-yl)methyl)-N-(4-(2-hydroxylphenyl)thiazol-2-yl)acrylamide] | – | stability in 20% acetonitrile/PBS buffer solution [3]: good stability |

The next lines start with results.

| GSTO1–1 binding activity (in words) [1] | SMILES | also measured |
| --- | --- | --- |
| inactive | C=CC(=O)Nc1cnn(-c2ccccc2)c1 [Compound 5, N-(1-Phenyl-1H-pyrazol-4-yl)acrylamide] | – |
| inactive | C=CC(=O)Nc1cnn(Cc2ccccc2)c1 [Compound 6, N-(1-Benzyl-1H-pyrazol-4-yl)acrylamide] | – |
| inactive | C=CC(=O)Nc1nc(-c2ccccc2OC)cs1 [Compound 26, N-(4-(2-Methoxyphenyl)thiazol-2-yl)acrylamide] | – |
